Data on six molecules can be found in patent US8063018B2, “Bivalent thrombin binding molecules comprising linkers” (National Research Council of Canada, priority 2004, dated 2011).

Read-outs that look alike come from different tables or passages of the source.

For assay [1], the target named is T1, thrombin (Homo sapiens, UniProt P00734). In words: Kinetic amidolytic assay with chromogenic substrate S-2238 (inhibition constants). Format: biochemical. The method, then:
(§1) Peptides were freeze-dried and their identity was confirmed by ion-spray mass spectrometry. Clotting assays were carried out by use of the protocols described previously (DiMaio and others, 1990, 21698-21703; Witting and others, 1992, 737-743). The assay employs bovine plasma fibrinogen dissolved at 0.1% in 50 mM Tris-Cl, 100 mM NaCl, 0.1% PEG-8000 at pH 7.6 (i.e. the clotting buffer). Each assay mixture contained a certain concentration of the peptide, and the reaction was started by the addition of human thrombin to a final concentration of 0.6-1.2 nM. Optical absorbance increase at 420 nm caused by fibrin clot formation was measured at 25° C. or 37° C. using the Spectramax plate reader. The onset clotting time was determined as an intersection of the baseline and the extrapolated linear portion of the OD change curve. The concentration of a peptide needed to double the clotting time was defined as IC50 (DiMaio and others, 1990, 21698-21703). Kinetic amidolytic curves were obtained in clotting buffer at 25° C. using eight inhibitor concentrations and three to five concentrations of the chromogenic substrate S-2238 (Chromogenix) (DiMaio and others, 1990, 21698-21703). Inhibition constants were extracted from Lineweaver-Burk equation by using weighted linear regression. Errors in Ki determination were estimated by using Monte-Carlo sampling with 1-3% variance of the experimental points. Peptide concentrations were determined spectrophotometrically using predicted extinction coefficients at 278 nm (Gill and von Hippel, 1989, 319-326).

Assay [2] deals with T1, thrombin. The assay is described as follows: Fibrinogen clotting assay catalyzed by thrombin. Format: biochemical. Particulars: for IC50: concentration needed to double the clotting time; for Clotting onset time: 150 nM peptide, 0.6 nM thrombin. As to the method: Curves represent OD420 time course after the addition of 0.6 nM thrombin in the presence of (♦) 0 nM; (◯) 0.5 nM; (□) 1 nM; (Δ) 1.5 nM; (⋄) 2.5 nM; (●) 3.75 nM; (▪) 6.25 nM; and (▴) […] of the inhibitor with linker (GS)n and n=2 (SEQ. ID. NO. 50) (a); n=4 (SEQ. ID. NO. 51) (b); n=6 (SEQ. ID. NO. 52) (c); n=8 (SEQ. ID. NO. 53) (d); n=10 (SEQ. ID. NO. 54) (e); and in the presence of (♦) 0 nM; (◯) 1 nM; (□) 2 nM; (Δ) 4 nM; (⋄) 6 nM; (●) 10 nM; (▪) 15 nM; and (▴) 25 nM of the inhibitor with linker (GS)n and n=12 (SEQ. ID. NO. 55) (f); n=14 (SEQ. ID. NO. 56) (g), at 37° C. The onset clotting time was determined as an intersection of the baseline and the extrapolated linear portion of the OD change curve. […] Curves (i) represent OD420 time course in the presence of (A) 0 nM; (◯) 1 nM; (□) 2 nM; (Δ) 4 nM; (⋄) 6 nM; and (●) 15 nM of the inhibitor with linker […] (SEQ. ID. NO. 103), at 37° C. […] represent OD420 time course in the presence of (◯) 0 nM; (□) 2 nM; (Δ) 4 nM; (⋄) 6 nM; (●) 8 nM; (▪) 10 nM; (▴) 12 nM; and (♦) 15 nM; of the inhibitor with linker […] (SEQ. ID. NO. 58) at 25° C. Curves (k) represent OD420 time course in the presence of (◯) 0 nM; (□) 0.5 nM; (Δ) 1 nM; (⋄) 2 nM; (●) 3 nM; (▪) 4 nM; (▴) 5 nM; and (♦) 6 nM; of the inhibitor with linker […] (SEQ. ID. NO. 105) at 37° C. Curves (I) represent OD420 time course in the presence of (◯) 0 nM; (□) 0.25 nM; (Δ) 0.5 nM; (⋄) 1 nM; (●) 1.5 nM; (▪) 2 nM; and (▴) 2.5 nM; of the inhibitor with linker […] (SEQ. ID. NO. 104) at 37° C. Curves (m) represent OD420 time course in the presence of (◯) 0 nM; (□) 2 nM; (Δ) 4 nM; (⋄) 6 nM; (●) 8 nM; (▴) 10 nM; and (A) 12 nM; of the inhibitor with linker […] (SEQ. ID. NO. 106) at 37° C. Curves (n) represent OD420 time course in the presence of (◯) 0 nM; (□) 1 nM; (Δ) 2 nM; (⋄) 3 nM; (●) 4 nM; (▪) 5 nM; (▴) 6 nM; and (♦) 7 nM; of the inhibitor with linker […] (SEQ. ID. NO. 107) at 37° C. Curves (o) represent OD420 time course in the presence of (◯) 0 nM; (□) 4 nM; and (Δ) 8 nM; of the inhibitor with linker GQSHNR (SEQ. ID. NO. 108) at 37° C.
Other experimental conditions were as used for the assays described in FIG. 2.
as §1, with “Clotting” for “Peptides were freeze-dried and their identity was confirmed by ion-spray mass spectrometry. Clotting”, “points.” for “points. Peptide concentrations were determined spectrophotometrically using predicted extinction coefficients at 278 nm (Gill and von Hippel, 1989, 319-326).”

[3] abbreviates: 25° C., S-2238, clotting buffer, read-out: KI, nM (25° C.).

What is called Ki is the dissociation constant of the complex between target and ligand, obtained from inhibition or displacement. As a reminder, the IC50 is the point on the concentration scale where inhibition reaches its midpoint. Lower therefore signals higher potency. Consider `CC[C@H](C)[C@H](NC(=O)[C@H](CCC(=O)O)NC(=O)[C@H](CCC(=O)O)NC(=O)[C@H](Cc1ccccc1)NC(=O)[C@H](CC(=O)O)NC(=O)CNC(=O)[C@H](CO)NC(=O)[C@@H](NC(=O)[C@H](CCCCN)NC(=O)[C@H](CCC(=O)O)NC(=O)[C@H](Cc1ccc(O)cc1)NC(=O)[C@H](Cc1c[nH]cn1)NC(=O)[C@@H]1CCCN1C(=O)[C@H](CO)NC(=O)CNC(=O)[C@H]1CCCCN1C(=O)[C@H](CCCNC(=N)N)NS(=O)(=O)c1ccc(C(C)(C)C)cc1)C(C)C)C(=O)N1CCC[C@H]1C(=O)N[C@@H](CCC(=O)O)C(=O)N[C@@H](CCC(=O)O)C(=O)N[C@@H](Cc1ccc(O)cc1)C(=O)N[C@@H](CC(C)C)C(=O)N[C@@H](CCC(N)=O)C(=O)O` [P3169], for which, on thrombin [1] (setting [3]), the Ki was 1 ± 0.2 nM. This molecule also showed an IC50 at thrombin [2] (IC50, nM (25° C.), 25° C.) of 0.4 nM.

For the molecule `CC[C@H](C)[C@H](NC(=O)[C@H](CCC(=O)O)NC(=O)[C@H](CCC(=O)O)NC(=O)[C@H](Cc1ccccc1)NC(=O)[C@H](CC(=O)O)NC(=O)CNC(=O)[C@H](CO)NC(=O)[C@@H](NC(=O)[C@H](CCCCN)NC(=O)[C@H](CCC(=O)O)NC(=O)[C@H](Cc1ccc(OP(=O)(O)O)cc1)NC(=O)[C@H](Cc1c[nH]cn1)NC(=O)[C@@H]1CCCN1C(=O)[C@H](CO)NC(=O)CNC(=O)[C@H]1CCCCN1C(=O)[C@H](CCCNC(=N)N)NS(=O)(=O)c1ccc(C(C)(C)C)cc1)C(C)C)C(=O)N1CCC[C@H]1C(=O)N[C@@H](CCC(=O)O)C(=O)N[C@@H](CCC(=O)O)C(=O)N[C@@H](Cc1ccc(O)cc1)C(=O)N[C@@H](CC(C)C)C(=O)N[C@@H](CCC(N)=O)C(=O)O` [P3170], the Ki on thrombin [1] (setting [3]) was determined as 1.5 ± 0.4 nM. Further, the IC50 against thrombin [2] (IC50, nM (25° C.), 25° C.) worked out at 0.7 nM.

As for `CC[C@H](C)[C@H](NC(=O)[C@H](CCC(=O)O)NC(=O)[C@H](CCC(=O)O)NC(=O)[C@H](Cc1ccccc1)NC(=O)[C@H](CC(=O)O)NC(=O)CNC(=O)[C@H](CO)NC(=O)CNC(=O)[C@H](CO)NC(=O)CNC(=O)[C@H](CO)NC(=O)CNC(=O)[C@H](CO)NC(=O)CNC(=O)[C@H](CO)NC(=O)CNC(=O)[C@H](CO)NC(=O)CNC(=O)[C@H](CO)NC(=O)CNC(=O)[C@H](CO)NC(=O)CNC(=O)[C@H](CO)NC(=O)CNC(=O)[C@H](CO)NC(=O)CNC(=O)[C@H](CO)NC(=O)CNC(=O)[C@H](CO)NC(=O)CNC(=O)[C@H](CO)NC(=O)CNC(=O)[C@H](CO)NC(=O)CNC(=O)[C@H]1CCCCN1C(=O)[C@H](CCCNC(=N)N)NS(=O)(=O)c1ccc(C(C)(C)C)cc1)C(=O)N1CCC[C@H]1C(=O)N[C@@H](CCC(=O)O)C(=O)N[C@@H](CCC(=O)O)C(=O)N[C@@H](Cc1ccc(O)cc1)C(=O)N[C@@H](CC(C)C)C(=O)N[C@@H](CCC(N)=O)C(=O)O` [P3159], the Ki at thrombin [1] (setting [3]) was 6.7 ± 1.9 nM. Further, the IC50 on thrombin [2] (IC50, nM (37° C.), 37° C.) came to 3.5 ± 0.2 nM.

For the molecule `CC[C@H](C)[C@H](NC(=O)[C@H](CC(C)C)NC(=O)[C@H](CCCCN)NC(=O)[C@H](CCC(N)=O)NC(=O)[C@H](CCC(=O)O)NC(=O)CNC(=O)[C@H]1CCCCN1C(=O)[C@H](CCCNC(=N)N)NS(=O)(=O)c1ccc(C(C)(C)C)cc1)C(=O)N[C@@H](CO)C(=O)N[C@@H](CCC(=O)O)C(=O)N[C@@H](CCC(=O)O)C(=O)N[C@@H](CC(=O)O)C(=O)N[C@@H](CC(C)C)C(=O)NCC(=O)N[C@@H](CC(=O)O)C(=O)N[C@@H](Cc1ccccc1)C(=O)N[C@@H](CCC(=O)O)C(=O)N[C@@H](CCC(=O)O)C(=O)N[C@H](C(=O)N1CCC[C@H]1C(=O)N[C@@H](CCC(=O)O)C(=O)N[C@@H](CCC(=O)O)C(=O)N[C@@H](Cc1ccc(O)cc1)C(=O)N[C@@H](CC(C)C)C(=O)N[C@@H](CCC(N)=O)C(=O)O)[C@@H](C)CC` [P3182], the inhibition constant Ki on thrombin [1] worked out at 66 ± 13 nM. Moreover, the “Effect of antibody 9E10 on inhibitory potency” value on thrombin [2] (150 nM inhibitor, ~1.2 μM 9E10) is “reversed the inhibitory potency”. Besides, the Clotting onset time entry on thrombin [2] (1.2 μM anti-c-myc antibody 9E10) is on record as “approximately 230 s”; on thrombin [2] (no antibody) it was “approximately 530 s”. Further, the IC50 against thrombin [2] (IC50, nM (37° C.), 37° C.) was around 25 nM.

Consider `CC[C@H](C)[C@H](NC(=O)[C@H](CCC(=O)O)NC(=O)[C@H](CCC(=O)O)NC(=O)[C@H](Cc1ccccc1)NC(=O)[C@H](CC(=O)O)NC(=O)CNC(=O)[C@H](CO)NC(=O)CNC(=O)[C@H](CO)NC(=O)CNC(=O)[C@H](CO)NC(=O)CNC(=O)[C@H](CO)NC(=O)CNC(=O)[C@H](CO)NC(=O)CNC(=O)[C@H](CO)NC(=O)CNC(=O)[C@H](CO)NC(=O)CNC(=O)[C@H](CO)NC(=O)CNC(=O)[C@H](CO)NC(=O)CNC(=O)[C@H](CO)NC(=O)CNC(=O)[C@H](CO)NC(=O)CNC(=O)[C@H](CO)NC(=O)CNC(=O)[C@H]1CCCCN1C(=O)[C@H](CCCNC(=N)N)NS(=O)(=O)c1ccc(C(C)(C)C)cc1)C(=O)N1CCC[C@H]1C(=O)N[C@@H](CCC(=O)O)C(=O)N[C@@H](CCC(=O)O)C(=O)N[C@@H](Cc1ccc(O)cc1)C(=O)N[C@@H](CC(C)C)C(=O)N[C@@H](CCC(N)=O)C(=O)O` [P3160], for which the Ki at thrombin [1] (setting [3]) turned out to be 4.6 ± 0.8 nM. The molecule further displayed an IC50 against thrombin [2] (IC50, nM (37° C.), 37° C.) of 2.8 ± 0.1 nM.

Turning to `CC[C@H](C)[C@H](NC(=O)[C@H](CCC(=O)O)NC(=O)[C@H](CCC(=O)O)NC(=O)[C@H](Cc1ccccc1)NC(=O)[C@H](CC(=O)O)NC(=O)CNC(=O)[C@H](CO)NC(=O)[C@@H](NC(=O)[C@H](CCCCN)NC(=O)[C@H](CCC(=O)O)NC(=O)[C@H](Cc1ccc(O)cc1)NC(=O)[C@H](Cc1c[nH]cn1)NC(=O)[C@@H]1CCCN1C(=O)[C@H](CO)NC(=O)CNC(=O)[C@H](CO)NC(=O)[C@@H](NC(=O)[C@H](CCCCN)NC(=O)[C@H](CCC(=O)O)NC(=O)[C@H](Cc1ccc(O)cc1)NC(=O)[C@H](Cc1c[nH]cn1)NC(=O)[C@@H]1CCCN1C(=O)[C@H](CO)NC(=O)CNC(=O)[C@H]1CCCCN1C(=O)[C@H](CCCNC(=N)N)NS(=O)(=O)c1ccc(C(C)(C)C)cc1)C(C)C)C(C)C)C(=O)N1CCC[C@H]1C(=O)N[C@@H](CCC(=O)O)C(=O)N[C@@H](CCC(=O)O)C(=O)N[C@@H](Cc1ccc(O)cc1)C(=O)N[C@@H](CC(C)C)C(=O)N[C@@H](CCC(N)=O)C(=O)O` [P3161], the IC50 against thrombin [2] (IC50, nM (25° C.), 25° C.) was 0.7 nM.
